In one experiment the target is T1, Full length human TBK1 (Homo sapiens, UniProt Q9UHD2).
T1 construct: Full length human TBK1 with an N-terminal His-tag; His-tag (N); made in house; host or cells: Sf9 insect cells (baculovirus, pFastBac1)
T1 sequence (Q9UHD2 1-729): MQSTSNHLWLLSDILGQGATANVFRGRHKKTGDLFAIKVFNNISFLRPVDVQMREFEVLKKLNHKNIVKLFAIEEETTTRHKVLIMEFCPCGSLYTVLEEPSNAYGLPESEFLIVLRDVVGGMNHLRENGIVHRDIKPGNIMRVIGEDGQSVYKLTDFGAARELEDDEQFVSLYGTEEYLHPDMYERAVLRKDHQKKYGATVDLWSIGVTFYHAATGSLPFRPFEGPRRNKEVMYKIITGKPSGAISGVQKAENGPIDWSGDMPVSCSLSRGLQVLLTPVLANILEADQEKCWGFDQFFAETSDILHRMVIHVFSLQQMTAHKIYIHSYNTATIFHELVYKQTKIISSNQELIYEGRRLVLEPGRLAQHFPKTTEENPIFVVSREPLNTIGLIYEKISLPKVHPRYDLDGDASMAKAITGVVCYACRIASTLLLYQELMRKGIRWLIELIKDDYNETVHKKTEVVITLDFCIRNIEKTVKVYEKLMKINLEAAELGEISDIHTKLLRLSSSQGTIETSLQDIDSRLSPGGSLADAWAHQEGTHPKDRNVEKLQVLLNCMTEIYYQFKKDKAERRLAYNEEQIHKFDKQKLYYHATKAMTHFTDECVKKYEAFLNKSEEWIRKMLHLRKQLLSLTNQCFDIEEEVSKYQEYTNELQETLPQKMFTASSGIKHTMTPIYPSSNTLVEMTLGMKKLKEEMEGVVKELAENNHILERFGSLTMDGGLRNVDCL
Briefly: Inhibition of TBK1 Enzyme (Caliper microfluidic assay). The following applies: 25 μM ATP, 60 min at RT; -log(IC50), IC50 molar; read-out: TBK1 Inhibition (pIC50) (converted). Type of experiment: biochemical. In outline:
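Enzyme: His-tagged full-length TBK1 expressed in Sf9. Reaction 60 min at RT in 20 mM Hepes pH 7.4, 10 mM MgCl2, 1 mM EDTA, 0.01% Brij-L23, 1 mM DTT, with 5FAM-peptide (added at 1 μM) and TBK1/ATP mix (added at 3 nM/25 μM), then EDTA-quenched. Conversion measured by microfluidic separation; 11-point 2.5-fold series fit to pIC50.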

In a further experiment the target is T2, TBK1 (Homo sapiens, UniProt Q9UHD2).
T2 construct: host or cells: RA1-ISRE beta-lactamase reporter cells
T2 sequence (Q9UHD2 1-729): T1 sequence (Q9UHD2 1-729)
Kind of experiment: Inhibition of TBK1 in Cells (TLR3 driven ISRE β-lactamase reporter assay). Type of experiment: cell-based. The following applies: poly IC-LMW stimulation 16 hrs; -log(EC50), EC50 molar; read-out: Inhibition of TBK1 in cells pEC50 (EC) (converted). The protocol:
TBK1 inhibition is determined using a TLR3 driven RA1-ISRE β-lacatamase reporter assay (Life Technologies). In the assay 50,000 cells/well are plated in black clear bottom 384 well plate. Each test compound is prepared in DMSO using 2.5-fold serial dilutions for 11 data points, which are then added to the media. Cells are stimulated with 0.15 mg/ml poly IC-LMW (Invivogen) for 16 hrs. Reporter activity is detected using the LiveBLAzer-FRET B/G CCF4-AM substrate (Life Technologies) and the plate is read using the Spectramax M5 instrument. Corresponding EC50 values are calculated by non-linear curve fitting of the compound concentrations and percent of inhibition to the standard EC50 equation and reported as pEC50, i.e., −log(EC50), where EC50 is the molar concentration.
For orientation: In a reporter assay the amount or activity of a reporter protein is the signal.

In the case of `O=C(Nc1cn2cc(-n3ccc(C(=O)N(CCO)CC(F)(F)F)n3)ncc2n1)C1CC1` [Example 127, 1-(2-(cyclopropanecarboxamido)imidazo[1,2-a]pyrazin-6-yl)-N-(2-hydroxyethyl)-N-(2,2,2-trifluoroethyl)-1H-pyrazole-3-carboxamide], the IC50 at Full length human TBK1 was 5.01 nM. For the same molecule, the EC50 at TBK1 was 209 nM.
For `O=C(N[C@H]1CCC[C@H]1O)c1nc(-c2ccc3nc(NC(=O)C4CC4)cn3c2)cs1` [Example 89, 4-(2-(cyclopropanecarboxamido)imidazo[1,2-a]pyridin-6-yl)-N-((1S, 2R)-2-hydroxycyclopentyl)thiazole-2-carboxamide], in that order: 31.6 nM and 1020 nM.
For `O=C(NC1CCOC1=O)c1nc(-c2ccc3nc(NC(=O)C4CC4)cn3c2)cs1` (stereo not drawn) [Example 94, 4-(2-(cyclopropanecarboxamido)imidazo[1,2-a]pyridin-6-yl)-N-(2-oxotetrahydrofuran-3-yl)thiazole-2-carboxamide], in that order: 200 nM and 5500 nM.
As to `Cc1sc(C(=O)NCC(F)(F)F)cc1-c1ccc2nc(NC(=O)C3CC3)cn2c1` [Example 29, 4-(2-(cyclopropanecarboxamido)imidazo[1,2-a]pyridin-6-yl)-5-methyl-N-(2,2,2-trifluoroethyl)thiophene-2-carboxamide], the IC50 at Full length human TBK1 is 39.8 nM. Also, the EC50 on TBK1 is 6760 nM.
Taken in the same sequence, the figures for `O=C(NCC(F)(F)F)c1cnn(-c2ccc3nc(NC(=O)C4CC4)cn3c2)c1` [Example 40, 1-(2-(cyclopropanecarboxamido)imidazo[1,2-a]pyridin-6-yl)-N-(2,2,2-trifluoroethyl)-1H-pyrazole-4-carboxamide] were 31.6 nM and 708 nM.
For `C[C@@H](NC(=O)c1nc(-c2ccc3nc(NC(=O)C4CC4)cn3c2)c[nH]1)C(F)(F)F` [Example 9, 4-{2-cyclopropaneamidoimidazo[1,2-a]pyridin-6-yl}-N-[(2R)-1,1,1-trifluoropropan-2-yl]-1H-imidazole-2-carboxamide], in that order: 10 nM and 229 nM.
For `O=C(Nc1cn2cc(-c3cc(C(=O)N4CCC(F)CC4)[nH]n3)ccc2n1)C1CC1` [Example 105, N-(6-(5-(4-fluoropiperidine-1-carbonyl)-1H-pyrazol-3-yl)imidazo[1,2-a]pyridin-2-yl)cyclopropanecarboxamide], in that order: 316 nM and 5370 nM.
With `CC(F)(F)CNC(=O)c1nc(-c2ccc3nc(NC(=O)C4CC4)cn3c2)c[nH]1` [Example 11, 4-{2-cyclopropaneamidoimidazo[1,2-a]pyridin-6-yl}-N-(2,2-difluoropropyl)-1H-imidazole-2-carboxamide], on Full length human TBK1, the IC50 was 63.1 nM. For the same molecule, the EC50 at TBK1 was 813 nM.
Regarding `O=C(NCC(F)(F)F)c1ccn(-c2ccc3nc(NC(=O)C4CC4)cn3n2)n1` [Example 39, 1-(2-(cyclopropanecarboxamido)imidazo[1,2-b]pyridazin-6-yl)-N-(2,2,2-trifluoroethyl)-1H-pyrazole-3-carboxamide], on Full length human TBK1, the IC50 was 251 nM. Moreover, on TBK1, the EC50 is more than 50100 nM.
For the molecule `O=C(NCC(F)F)c1cc(-c2cn3cc(NC(=O)C4CC4)nc3cn2)cs1` [Example 19, 4-(2-(cyclopropanecarboxamido)imidazo[1,2-a]pyrazin-6-yl)-N-(2,2-difluoroethyl)thiophene-2-carboxamide], the IC50 on Full length human TBK1 was 5.01 nM. In addition, the EC50 at TBK1 was 407 nM.
Take `O=C(N[C@@H]1CCCOC1)c1cc(-c2ccc3nc(NC(=O)C4CC4)cn3c2)cs1` [Example 69, (R)-4-(2-(cyclopropanecarboxamido)imidazo[1,2-a]pyridin-6-yl)-N-(tetrahydro-2H-pyran-3-yl)thiophene-2-carboxamide]: the IC50 at Full length human TBK1 is 100 nM. Moreover, the EC50 at TBK1 was 2880 nM.
For the molecule `O=C(NCC(F)(F)F)c1ncc(-c2ccc3nc(NC(=O)C4CC4)cn3c2)[nH]1` [Example 50, 4-(2-(cyclopropanecarboxamido)imidazo[1,2-a]pyridin-6-yl)-N-(2,2,2-trifluoroethyl)-1H-imidazole-2-carboxamide], the IC50 on Full length human TBK1 was 12.6 nM. In addition, the EC50 at TBK1 is 479 nM.
Taken in the same sequence, the figures for `CC(NC(=O)c1cc(-c2ccc3nc(NC(=O)C4CC4)cn3c2)cs1)C(F)(F)F` (stereo not drawn) [Example 59, 4-(2-(cyclopropanecarboxamido)imidazo[1,2-a]pyridin-6-yl)-N-(1,1,1-trifluoropropan-2-yl)thiophene-2-carboxamide] were 20 nM and 240 nM.
Take `O=C(NC1COCC1O)c1nc(-c2ccc3nc(NC(=O)C4CC4)cn3c2)cs1` (stereo not drawn) [Example 109, 4-(2-(cyclopropanecarboxamido)imidazo[1,2-a]pyridin-6-yl)-N-(4-hydroxytetrahydrofuran-3-yl)thiazole-2-carboxamide]: the IC50 on Full length human TBK1 was 63.1 nM. In addition, the EC50 on TBK1 was 3240 nM.
For `O=C(NC1CCCOC1)c1nc(-c2ccc3nc(NC(=O)C4CC4)cn3c2)cs1` (stereo in doubt) [Example 88, (S)-4-(2-(cyclopropanecarboxamido)imidazo[1,2-a]pyridin-6-yl)-N-(tetrahydro-2H-pyran-3-yl)thiazole-2-carboxamide], in that order: 63.1 nM and 1550 nM.
Take `O=C(NCC(F)F)c1nc(-c2cn3cc(NC(=O)C4CC4)nc3cn2)cs1` [Example 5, 4-(2-(cyclopropanecarboxamido)imidazo[1,2-a]pyrazin-6-yl)-N-(2,2-difluoroethyl)thiazole-2-carboxamide]: the IC50 at Full length human TBK1 is 10 nM. On TBK1, the EC50 was 794 nM.
With `O=C(Nc1cn2cc(-c3csc(C(=O)N4CCC(O)C4)n3)ccc2n1)C1CC1` (stereo not drawn) [Example 112, N-(6-(2-(3-hydroxypyrrolidine-1-carbonyl)thiazol-4-yl)imidazo[1,2-a]pyridin-2-yl)cyclopropanecarboxamide], the IC50 at Full length human TBK1 was 79.4 nM. For the same molecule, at TBK1, the EC50 is 4370 nM.
Taken in the same sequence, the figures for `CC(F)(F)CNC(=O)c1cn(-c2ccc3nc(NC(=O)C4CC4)cn3c2)cn1` [Example 42, 1-(2-(cyclopropanecarboxamido)imidazo[1,2-a]pyridin-6-yl)-N-(2,2-difluoropropyl)-1H-imidazole-4-carboxamide] were 100 nM and 5130 nM.
For `O=C(NC1COCC1O)c1cc(-c2ccc3nc(NC(=O)C4CC4)cn3c2)cs1` (stereo not drawn) [Example 84, 4-(2-(cyclopropanecarboxamido)imidazo[1,2-a]pyridin-6-yl)-N-(4-hydroxytetrahydrofuran-3-yl)thiophene-2-carboxamide], in that order: 31.6 nM and 2820 nM.
For `COCCNC(=O)c1cc(-c2ccc3nc(NC(=O)C4CC4)cn3c2)cs1` [Example 73, 4-(2-(cyclopropanecarboxamido)imidazo[1,2-a]pyridin-6-yl)-N-(2-methoxyethyl)thiophene-2-carboxamide], in that order: 63.1 nM and 1660 nM.
With `O=C(NCC(O)C(F)(F)F)c1nc(-c2ccc3nc(NC(=O)C4CC4)cn3c2)cs1` (stereo not drawn) [Example 115, 4-(2-(cyclopropanecarboxamido)imidazo[1,2-a]pyridin-6-yl)-N-(3,3,3-trifluoro-2-hydroxypropyl)thiazole-2-carboxamide], the IC50 at Full length human TBK1 is 79.4 nM. The EC50 at TBK1 was 1510 nM.

(Values after patent publication US9598424B2 (Takeda Pharmaceutical Company Limited, priority 2014, dated 2017).)
